Literature values as cited in publication PMC7938295 (Biomedical Reports, 2021).

Target: DPP4 (Homo sapiens, UniProt P27487)
Conditions: read-out: DPP4 Ki

DPP4, sequence (P27487 whole entry): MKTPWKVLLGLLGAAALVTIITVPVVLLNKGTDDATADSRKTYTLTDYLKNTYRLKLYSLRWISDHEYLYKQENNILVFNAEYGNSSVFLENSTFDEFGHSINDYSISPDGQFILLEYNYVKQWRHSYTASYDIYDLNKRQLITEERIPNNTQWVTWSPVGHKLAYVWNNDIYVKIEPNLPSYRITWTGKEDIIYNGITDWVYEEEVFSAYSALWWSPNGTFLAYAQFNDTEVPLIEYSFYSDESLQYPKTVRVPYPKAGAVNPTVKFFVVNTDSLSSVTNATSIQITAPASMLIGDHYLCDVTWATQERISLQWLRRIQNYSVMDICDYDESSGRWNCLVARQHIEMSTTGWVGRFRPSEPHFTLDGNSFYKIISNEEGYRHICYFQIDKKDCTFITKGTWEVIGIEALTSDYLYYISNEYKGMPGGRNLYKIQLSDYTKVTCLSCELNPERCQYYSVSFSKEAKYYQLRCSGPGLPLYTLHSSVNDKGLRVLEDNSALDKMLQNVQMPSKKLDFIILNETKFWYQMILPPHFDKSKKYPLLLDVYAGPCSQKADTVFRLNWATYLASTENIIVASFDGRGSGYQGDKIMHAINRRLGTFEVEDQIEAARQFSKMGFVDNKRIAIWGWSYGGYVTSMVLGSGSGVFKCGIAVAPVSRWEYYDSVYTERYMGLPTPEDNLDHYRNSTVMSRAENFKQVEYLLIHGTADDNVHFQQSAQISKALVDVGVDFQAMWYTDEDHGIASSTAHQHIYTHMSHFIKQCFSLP

- Ki: 18.6 µM
Compound: O=c1cc(-c2ccccc2)oc2ccccc12 [flavone]
